Among the test systems are LOX IMVI; RXF 393; COLO 205; MOLT-4; HT-29; SN12C; SF-539; MDA-N; SNB-75; OVCAR-4; HOP-62; EKVX; SF-295; MDA-MB-435; UACC-62; HCC 2998; SK-MEL-28; SK-MEL-2; KM12; SK-MEL-5.
Assay in all cases: DTP human tumour cell line panel, 48 h

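Cultured in 96-well plates, cells were exposed to test compound for 48 hours across five concentrations. GI50: concentration for 50% inhibition of growth.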 The source made the active and inactive calls. Rule as the data show it: active = GI50 up to about 1.1 µM and inactive = higher.

For the compound `O=C1c2cccc3cc([N+](=O)[O-])cc(c23)C(=O)N1CCCN1CCN(CCCNc2ccc3ncn4c5ccccc5c(=O)c2c34)CC1`, the GI50 with LOX IMVI, in the assay on RXF 393, in the assay on COLO 205, in the assay on MOLT-4, with HT-29 and in the assay with SN12C was < 0.005 µM (active) throughout. Besides, the GI50 is < 0.005 µM (active) in the assay on SF-539; < 0.005 µM (active) in the assay with MDA-N; < 0.005 µM (active) in the assay with SNB-75; 0.00547 µM (active) with OVCAR-4; < 0.005 µM (active) with HOP-62; < 0.005 µM (active) with EKVX. Also, the GI50 is < 0.005 µM (active) with SF-295; < 0.005 µM (active) in the assay on MDA-MB-435; < 0.005 µM (active) in the assay with UACC-62; < 0.005 µM (active) in the assay on HCC 2998; 0.0562 µM (active) with SK-MEL-28; 0.0191 µM (active) in the assay on SK-MEL-2. Moreover, the GI50 with KM12 was < 0.005 µM (active).
In the case of `COc1cc(C2SCC(=O)N2c2ccc(Cl)cc2)cc(I)c1O` (centres undefined), the GI50 with RXF 393 is > 100 µM (inactive); in the assay with COLO 205, 2.64 µM (inactive); in the assay with MOLT-4, 21.9 µM (inactive); with HT-29, > 100 µM (inactive); with SN12C it was > 100 µM (inactive); in the assay on SF-539 it was > 35.9 µM (inactive). The GI50 in the assay with MDA-N is 3.37 µM (inactive); with SNB-75, > 100 µM (inactive); in the assay on SK-MEL-5, 6.52 µM (inactive); with OVCAR-4, 3.37 µM (inactive); in the assay with EKVX it was 8.13 µM (inactive); in the assay with SF-295, 4.72 µM (inactive). The GI50 in the assay on MDA-MB-435 is 1.56 µM (inactive); in the assay on UACC-62 it was 0.305 µM (active); in the assay on HCC 2998 it was 65.2 µM (inactive); with SK-MEL-28 it was 22 µM (inactive); in the assay on SK-MEL-2, 23.9 µM (inactive); in the assay on KM12, 7.01 µM (inactive).
Take `OC1(C(F)(F)F)OCCN=C1C(F)(F)F` (centres undefined): the GI50 was > 100 µM (inactive) in the assay with LOX IMVI; > 100 µM (inactive) with RXF 393; > 100 µM (inactive) in the assay with COLO 205; 69.8 µM (inactive) in the assay with MOLT-4; > 100 µM (inactive) with HT-29; 65.9 µM (inactive) in the assay with SN12C. Further, the GI50 in the assay on MDA-N was > 100 µM (inactive); in the assay with SNB-75, > 100 µM (inactive); with SK-MEL-5 it was 56.2 µM (inactive); in the assay with OVCAR-4, > 100 µM (inactive); with HOP-62 it was > 100 µM (inactive); in the assay on EKVX it was > 100 µM (inactive). The GI50 in the assay with SF-295 is > 100 µM (inactive); in the assay with MDA-MB-435 it was > 100 µM (inactive); with UACC-62, > 100 µM (inactive); with HCC 2998, > 100 µM (inactive); with SK-MEL-28, > 100 µM (inactive); in the assay with SK-MEL-2, 31.5 µM (inactive). Moreover, the GI50 in the assay on KM12 is > 100 µM (inactive).
On to `CC(=O)OC12c3ccccc3-c3ccccc3C1C(C(=O)O)C2(Cl)C(=O)O` (centres undefined), for which the GI50 in the assay with LOX IMVI, in the assay on RXF 393, in the assay with COLO 205, in the assay on MOLT-4, in the assay on HT-29 and in the assay with SN12C was > 10 µM (inactive) in each case. Moreover, the GI50 in the assay on SF-539, in the assay on MDA-N, in the assay with SNB-75, in the assay with SK-MEL-5, with OVCAR-4 and in the assay on HOP-62 was > 10 µM (inactive) in each case. The GI50 in the assay on EKVX, in the assay with SF-295, in the assay on MDA-MB-435, in the assay on HCC 2998, in the assay on SK-MEL-28 and with SK-MEL-2 was > 10 µM (inactive) throughout. Also, in the assay with KM12, the GI50 is > 10 µM (inactive).
For the compound `Cc1cc(N(CCC#N)CCC#N)ccc1/C=C(\NC(=O)/C=C/c1ccccc1)C(=O)Nc1ccc(Cl)cc1`, the GI50 with LOX IMVI was 1.14 µM (inactive); in the assay on RXF 393, > 68.9 µM (inactive); with COLO 205, 1.07 µM (active); in the assay with MOLT-4 it was 38.1 µM (inactive); with HT-29, > 14.3 µM (inactive); in the assay with SN12C it was > 75.7 µM (inactive). The GI50 in the assay with SF-539 was 6.81 µM (inactive); in the assay with MDA-N, 5.01 µM (inactive); in the assay on SNB-75, > 52.4 µM (inactive); in the assay with SK-MEL-5, 0.179 µM (active); with OVCAR-4, 30.5 µM (inactive); in the assay with EKVX it was > 80.2 µM (inactive). In addition, the GI50 was 4.86 µM (inactive) in the assay on SF-295; 1.94 µM (inactive) with MDA-MB-435; 0.577 µM (active) with UACC-62; 4.33 µM (inactive) with HCC 2998; > 100 µM (inactive) with SK-MEL-28; > 59.6 µM (inactive) with SK-MEL-2. In addition, in the assay on KM12, the GI50 was 3.74 µM (inactive).
`O=C(/C=C/c1ccc2ccccc2c1)NCc1ccc(C(=O)NCCc2ccccc2)cc1`: the GI50 with LOX IMVI, in the assay on RXF 393, in the assay with COLO 205, in the assay with MOLT-4, in the assay on SN12C and in the assay with MDA-N was > 100 µM (inactive) in each case. In addition, the GI50 in the assay on SNB-75 was 41.5 µM (inactive); in the assay on SK-MEL-5, > 100 µM (inactive); with OVCAR-4, > 100 µM (inactive); with HOP-62, > 100 µM (inactive); in the assay on SF-295, > 100 µM (inactive); with MDA-MB-435 it was > 100 µM (inactive). Also, the GI50 in the assay with UACC-62, in the assay on HCC 2998, with SK-MEL-28, in the assay on SK-MEL-2 and in the assay on KM12 was > 100 µM (inactive) throughout.
As for `COC(=O)C(=O)C(C(=O)C(=O)Nc1ccccc1OC)c1nc2ccc([N+](=O)[O-])cc2nc1O` (centres undefined), the GI50 with LOX IMVI was 96.2 µM (inactive); in the assay with RXF 393 it was > 100 µM (inactive); with MOLT-4, > 100 µM (inactive); in the assay with HT-29, > 100 µM (inactive); in the assay with SN12C, > 100 µM (inactive); with SF-539, > 100 µM (inactive). Further, the GI50 in the assay with MDA-N was 32.7 µM (inactive); in the assay with SNB-75, > 100 µM (inactive); in the assay on SK-MEL-5, > 100 µM (inactive); in the assay on OVCAR-4 it was 83.8 µM (inactive); with HOP-62, > 100 µM (inactive); in the assay with EKVX it was 45.5 µM (inactive). For the same compound, the GI50 in the assay with SF-295 is > 100 µM (inactive); in the assay with MDA-MB-435, 35.6 µM (inactive); with UACC-62 it was > 100 µM (inactive); in the assay on HCC 2998 it was > 100 µM (inactive); with SK-MEL-28, > 100 µM (inactive); with SK-MEL-2 it was > 100 µM (inactive). Also, the GI50 in the assay with KM12 was 54.3 µM (inactive).
Take `C=C(Cl)C(Cl)(CCl)CCC(Br)C(C)(C)Br` (centres undefined): the GI50 in the assay with RXF 393, in the assay with COLO 205, in the assay on MOLT-4, in the assay on HT-29, in the assay on SN12C and with SF-539 was > 10 µM (inactive) throughout. Moreover, the GI50 in the assay with MDA-N, with SNB-75, with SK-MEL-5, in the assay on OVCAR-4, with HOP-62 and with EKVX was > 10 µM (inactive) in each case. Besides, the GI50 with SF-295, in the assay on MDA-MB-435, in the assay with UACC-62, with HCC 2998, in the assay with SK-MEL-28 and in the assay on SK-MEL-2 was > 10 µM (inactive) each time. In the assay on KM12, the GI50 was > 10 µM (inactive).

As usually defined, the GI50 is the concentration giving 50% growth inhibition.

The record behind these values is ChEMBL document CHEMBL1201862, “PubChem BioAssay data set” (2004).
